Assay [1] has as its system radiation-induced mucositis mouse model. Description: Radiation-induced mucositis mouse model: viability, body weight, intestinal functions. The class given is in vivo, C57BL/6(H-2k) mice. The following applies: 1100 cGy radiation, compared to group not treated. As to the method:
NecroX-7 ((tetrahydropyran-4-yl)-[2-phenyl-5-(1,1-dioxo-thiomorpholine-4-yl)methyl-1H-indole-7-yl]amine) was obtained from LG Life Sciences, Ltd. 7 week- to 9 week-old C57BL/6(H-2k) mice were used as an animal model, and irradiated with 1,100 cGy whole-body radiation to induce damage to the intestinal mucosa, thereby completing the establishment of a mucositis model. Effects of NecroX-7 administered on such a mucositis model were analyzed by comparison in terms of viability, body weight, and intestinal functions.
(A) C57BL/6(H-2k) mice were irradiated with strong radiation 1100 cGy (radiation source: X-ray Mevatron MXE-2) at a dose rate of 1 Gy/min to induce mucositis. NecroX-7 was administered five times at a dose of 0.3 mg/kg or 3 mg/kg or 30 mg/kg and the results were compared.
Induction of intestinal mucositis by radiation causes side effects such as intestinal hemorrhaging and fecal incontinence. Thus, in the present experiment, a mucositis model was established by irradiating high-dose radiation of 1100 cGy, and NecroX-7 was treated total five times and the NecroX-7 treated group was compared to a group not treated with NecroX-7. A protective effect of NecroX-7 with respect to radiation-induced intestinal mucositis was examined.

Assay [2] relates to intestinal tissue of radiation-induced mucositis mice. Description: H&E staining of intestinal tissue, radiation-induced mucositis. Type of assay: in vivo. Particulars: 30 mg/kg NecroX-7, FIG. 3.
Assay [3] shares this test system. Put plainly: Cell proliferation (bromodeoxyuridine) by IHC staining of intestinal tissue. Type of assay: in vivo. Particulars: 30 mg/kg NecroX-7, unlike a control, FIG. 4. How it is done: Cell proliferation (bromodeoxyuridine) was confirmed by IHC staining. Before obtaining mouse tissues, mice were each injected with […] of a BrDU labeling reagent (5-bromo-2′-deoxyuridine and 5-fluoro-2′-deoxyuridine) and intestinal tissue was extracted within 2 hours to prepare paraffin blocks. 4 μm continuous sections were obtained from paraffin-embedded tissue, treated with xylene three times to remove paraffin, and then rinsed stepwise in 95%, 90% and 70% ethanol. After removing endogenous peroxidase from 0.3% hydrogen peroxide, the sections were treated with goat serum for 30 minutes. A primary antibody was diluted in PBS containing 3% BSA according to the manufacturer's instructions and then maintained for 1 hour to induce a reaction therebetween. […] The cells were maintained in 3 μg/ml HRP streptoavidin for 30 minutes, developed color with DAB and hydrogen peroxide, and then were subjected to contrast staining with Mayer's hematoxylin or 1% methyl green.

The subject of a further assay is tumor cells. Put plainly: MTT assay of irradiated tumor cells. The class given is cell-based. Particulars: 800 cGy radiation; NecroX-7 according to doses; 3 days incubation; FIG. 5. As to the method:
(§1) Mucositis is a general side effect caused by radiation or chemotherapy for tumor treatment. Thus, to confirm the efficacy of a mucositis therapeutic agent, an effect thereof on tumor proliferation should be evaluated. Normal cells and tumor cells were irradiated with 800 cGy radiation, treated with NecroX-7 according to doses, and inoculated on a 96-well plate, incubated at 37[…] and 5% CO2 for 3 days, and then cell proliferation was confirmed by MTT assay. After incubation for 3 days, an MTT solution was added thereto and a reaction was allowed to occur therein for 3 hours, and the absorbance thereof was measured at […].

In another assay the test system is normal cells. Put plainly: MTT assay of irradiated normal cells. The class given is cell-based. Particulars: 800 cGy radiation; NecroX-7 according to doses; 3 days incubation; FIG. 5. How it is done: as §1
A general note: Tetrazolium dyes change colour on reduction, which living cells bring about.

Assay [4] deals with intestinal epithelial cells (IEC-6). Put plainly: MTS assay of IEC-6 cell proliferation in normal environments. Particulars: no radiation, 5, 10, 20, 40 μM for 30 minutes, measured after 2 days. The class given is cell-based. As to the method: To examine an effect of NecroX-7 on IEC-6 cell proliferation ability in normal environments, IEC-6 cells were treated with NecroX-7 at each concentration (5 μM, 10 μM, 20 μM, and 40 μM) for 30 minutes, the media were replaced and, after 2 days, the viability of the IEC-6 cells was measured by MTS (3-(4,5-dimethylthiazol-2-yl)-5-(3-carboxymethoxyphenyl)-2-(4-sulfophenyl)-2H-tetrazolium) assay.

For assay [5] the test system is unchanged. Put plainly: MTS assay of IEC-6 cells after irradiation. The class given is cell-based. Particulars: 20 μM and 40 μM NecroX-7 for 30 minutes; 2 days after radiation irradiation; FIG. 6. As to the method: To investigate an effect of NecroX-7 on cell proliferation ability after irradiation, the IEC-6 cells were treated with NecroX-7, for 30 minutes, according to concentration, the media were replaced, and then MTS assay was performed thereon 2 days after radiation irradiation.

Assay [6] relates to mitochondrial ROS in intestinal epithelial cells (IEC-6). Put plainly: Mitochondrial ROS by CM-H2ROS staining after radiation. Type of assay: cell-based. Particulars: IEC-6 cells after radiation; FIG. 6.
The test system of assay [7] is anticancer drug-induced mucositis mouse model. Put plainly: Anticancer drug (5-FU)-induced mucositis mouse model: viability, body weight. Particulars: 50 mg/kg 5-FU i.p. five times; NecroX-7 intravenously five times at 0.3, 3 or 30 mg/kg; compared to group not treated; FIG. 7. Type of assay: in vivo, C57BL/6(H-2k) mice. As to the method:
7 week- to 9 week-old C57BL/6(H-2k) mice were used as an animal model, and injected intraperitoneally with 50 mg/kg of 5-fluorouracil (5-FU) every day for 5 days to induce oral and intestinal mucosal damage, thereby completing the establishment of a mucositis model. Effects of NecroX-7 administered on such a mucositis model were analyzed by comparison in terms of viability, body weight, and intestinal functions.
To induce oral and intestinal mucositis, the C57BL/6(H-2k) mice were intraperitoneally injected with 50 mg/kg of 5-FU five times. NecroX-7 was administered intravenously five times at a dose of 0.3 mg/kg or 3 mg/kg or 30 mg/kg and the results were compared.

The test system of assay [8] is tongue and intestinal tissues of anticancer drug-induced mucositis mice. Description: H&E staining of tongue and intestinal tissues, 5-FU-induced mucositis. The class given is in vivo.
The next assay concerns Human tumor cells. Description: MTS viability of human tumor cells, NecroX-7 with or without 5-FU. The following applies: 5, 10, 20, 40 μM for 30 minutes; media without 5-FU; after 3 days; FIG. 10. Type of assay: cell-based. How it is done:
Human tumor cells were treated with NecroX-7 at each concentration ((5 μM, 10 μM, 20 μM, and 40 μM) for 30 minutes, the media were replaced by media with or without 5-FU, which is a chemotherapeutic agent, the cells were loaded on a 96-well plate and, after 3 days, the viability of the cells was measured by MTS assay.

In assay [9] the test system is necrocytosis caused by oxidative stress and acetaminophen. Particulars: reported, Park et al. 2013; cited from earlier work.
Assay [10] has as its system liver injury caused by carbon tetrachloride. The following applies: mouse model; reported, Park et al. 2013; cited from earlier work.
The test system of assay [11] is liver injury due to ischemic reperfusion. Particulars: reported, Park et al. 2013; cited from earlier work.
The mark [12] stands for this setting: NecroX-7 five times at 0.3, 3 or 30 mg/kg, FIG. 1.

Here are results for 1 molecule from patent US10272092B2, “Composition for preventing or treating mucositis comprising NecroX as effective ingredient” (THE CATHOLIC UNIVERSITY OF KOREA INDUSTRY-ACADEMIC …, priority 2014, dated 2019).

The structures appear in SMILES notation.

Regarding `O=S1(=O)CCN(Cc2cc(NC3CCOCC3)c3[nH]c(-c4ccccc4)cc3c2)CC1` [NecroX-7, (tetrahydropyran-4-yl)-[2-phenyl-5-(1,1-dioxo-thiomorpholine-4-yl)methyl-1H-indole-7-yl]amine], the values for the body weight loss result in [1] (setting [12]) and in [7] were “inhibited body weight loss” and “suppressed body weight loss”, respectively. Moreover, the viability entry in assay [1] (setting [12]) and in assay [7] was “increased viability” in each case. Also, the “intestinal function protection (length of the intestines, stool production)” value in assay [1] (NecroX-7 total five times, FIG. 2) was “protected, similar to the intestines of a normal group”. The “H&E histology of intestinal tissue (villi and mucosal destruction)” value in assay [2] was “aspects similar to normal intestinal tissue”; in assay [8] (NecroX-7-treated group, FIG. 9), “aspects similar to normal tongue and intestinal tissues”. Further, in [3], the “cell proliferation (bromodeoxyuridine) in intestinal tissue” value is listed as “vigorous cell proliferation was observed”. For the same molecule, the “proliferation of tumor cells (MTT)” value in the assay with tumor cells was “suppressed or decreased in most cancer cell lines”. The “radiation-induced cell death in normal cells (MTT)” value with normal cells is reported as “radiation-induced cell death was prevented”. Besides, the “effect on IEC-6 cell proliferation (MTS viability)” value in assay [4] is on record as “nearly no effect on cell proliferation”. The “number of live IEC-6 cells (MTS)” value in assay [5] is “significantly increased”. The “mitochondrial ROS (CM-H2ROS staining)” value in [6] was “significantly suppressed mitochondrial ROS increased by radiation”. Besides, in assay [8] (30 mg/kg of NecroX-7, FIG. 8), the “H&E histology of tongue and oral mucosa (epidermal atrophy, infiltration of inflammatory and necrotic cells)” value was “aspects similar to normal tissues”. Besides, the “viability of human tumor cells (MTS), NecroX-7 alone” value with Human tumor cells is on record as “anticancer effect in a concentration-dependent manner”. In assay [9], the “protection against necrocytosis caused by oxidative stress and acetaminophen” value is “protective effect against necrocytosis caused by oxidative stress and acetaminophen”. The “prevention of liver injury caused by carbon tetrachloride” value in assay [10] is reported as “effect of preventing liver injury caused by carbon tetrachloride in a mouse model”. Moreover, in assay [11], the “inhibition of liver injury due to ischemic reperfusion” value is recorded as “effectively inhibits liver injury due to ischemic reperfusion”.
